{
  "source": "patent US20140155445A1",
  "about": "“Compounds and Methods for Treating Cancer and Diseases of the Central Nervous System” (Osta Biotechnologies Inc., priority 2007, published 2014)",
  "molecular_target": "T1, human HO-1 (hHO-1) in transfected astroglia (Homo sapiens, UniProt P09601)",
  "T1 construct": "containing the entire protein-coding region (866 bp) of the human HO-1 gene; expressed in transfected cells; host or cells: primary rat astrocytes, transient transfection with pcDNA3.1/Zeo.CMV.Flag.hHO-1 (Lipofectamine 2000)",
  "T1 sequence (P09601 1-288)": "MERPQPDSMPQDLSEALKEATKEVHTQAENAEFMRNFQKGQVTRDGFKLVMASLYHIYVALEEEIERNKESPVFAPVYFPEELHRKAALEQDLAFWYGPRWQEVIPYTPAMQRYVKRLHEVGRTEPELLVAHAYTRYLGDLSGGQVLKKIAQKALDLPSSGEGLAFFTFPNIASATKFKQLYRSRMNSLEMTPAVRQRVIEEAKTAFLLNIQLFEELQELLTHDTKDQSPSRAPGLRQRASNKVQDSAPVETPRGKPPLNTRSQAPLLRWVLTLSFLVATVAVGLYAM",
  "assay": "HO enzyme activity (bilirubin formation) in hHO-1-transfected astrocytes",
  "type": "cell-based",
  "details": "6.5 μM",
  "description": "Upon reaching >90% confluence, 1×10^6 cells were transiently transfected with 4.0 μg of plasmid DNA-Lipofectamine 2000 complex using Lipofectamine 2000 method according to manufacturer instructions (Invitrogen). […] 12 μg of plasmid DNA and 16 μl of Lipofectamine 2000 reagent were diluted in 1.5 mL opti-MEM I reduced serum medium and incubated for 5 minutes at room temperature with gentle mixing. The two solutions were combined, incubated at room temperature for 20 minutes to promote formation of DNA-lipid complexes and administered to the cells. 2 mL opti-MEM I reduced serum medium was added to the flasks to ensure coverage of the monolayer by the transfection mixture. Following incubation for 6 hours at 37° C., the transfection mixture was replaced with 10 mL of complete media without antibiotics.\nA young adult male rat was gas-anesthetized, laid on ice and systemically perfused with ice-cold 0.9% NaCl to get rid of all blood from liver. The liver was then excised on ice and transferred to a cold room (4° C.) and cut into small pieces in cold 0.9% NaCl (3 mL per gram of tissue) with surgical scissors in and placed in a 50 mL tube. The tissue chunks were homogenized with an electric tissue homogenizer and centrifuged at 150×g for […] at 4° C. Similarly, all of the following steps, including centrifugations, were performed at 4° C. The supernatant was centrifuged at 18,000×g for 10 min and further at 30,000×g for 30 min. A saturated solution of ammonium sulfate was added to the 30,000×g supernatant to attain 40% saturation and placed on ice for 10 min. The mixture was centrifuged at 10,000×g for 10 min and supernatant was recovered and transferred to a fresh tube. Sixty percent of saturation was achieved by adding saturation solution of ammonium sulfate to the supernatant. The mixed solution was centrifuged again at 10,000×g for 10 min and […]. […] The dialysate was centrifuged at 10,000 g for 10 min and pellet was discarded. The protein concentration of the supernatant was measured with Bradford reagent (BioRad laboratories, Hercules, Calif.) and adjusted to 10 mg/mL with 0.01 M KPO4, pH7.4. The supernatant was aliquoted and stored at −20° C. ready for use.\nCytosol extracts were prepared for HO activity measurement by the method of Ryter (Ryter, Kvam, Tyrrell 2000). Astroglial monolayers were washed with ice-cold PBS and scraped in ice-cold PBS-EDTA (1 mM, pH 8.0) containing 50 μg/mL protease inhibitor (AEBSF), centrifuged at 150×g at 4° C. and resuspended in 20 mM Tris-HCl (pH 7.4) and 0.25 M sucrose containing protease inhibitors. Cell suspensions were sonicated on ice 2×15 s at 20 W and centrifuged for 20 min at 4° C. at 15,000×g. Protein concentration of supernatant was measured with Bradford method. […] Reaction mixtures were incubated at 37° C. in the dark for 60 min with hard vortex every 10 min. […] HO activity was calculated as nanomoles bilirubin per milligram protein per min, assuming an extinction coefficient of 40/mM/cm in chloroform (see FIG. 8).\nCells were rinsed twice with cold PBS (pH 7.4) and scraped in iced lysis buffer consisting of 1% Nonidet P-40, 50 mM Tris.HCl (pH 7.4), 30 mM NaCl, 25 mM β-glycerophosphate, 10 mM EDTA, 10 mM EGTA, 1 mM MgCl2, and protease inhibitors (10 mM sodium fluoride, 50 μg/mL AEBBSF, 5 μg/mL leupeptin, 5 μg/mL pepstatin, 5 μg/mL aprotinin). […] Protein contents were determined using the Bradford method. […]",
  "note": "Entries after “also recorded” stand apart in the source; their conditions may differ.",
  "data": [
    {"smiles": "Brc1ccc(CCC2(Cn3ccnc3)OCCO2)cc1.Cl", "note": "[QC-56, 1-((2-(2-(4-Bromophenyl)ethyl)-1,3-dioxolan-2-yl)methyl)-1H-imidazole hydrochloride]", "values": [
      {"measurement": "HO activity in HO-1-transfected astroglia", "setting": "18 h, hHO-1-transfected cells, hydrochloride", "value": "suppressed to levels akin to those of non-transfected and sham-transfected controls; also recorded: significantly attenuated; also recorded: significantly decreased"},
      {"measurement": "expression level of flag-tagged HO-1 protein", "setting": "transiently transfected cells", "value": "without affecting the expression level of flag-tagged HO-1 protein"}
    ]}
  ]
}
